Experimental findings from ChEMBL document CHEMBL4130451, “Design and Synthesis of N-Aryl Phenoxyethoxy Pyridinones as Highly Selective and CNS Penetrant mGlu3 NAMs” (ACS Med Chem Lett, 2017) are described below.

Each structure is given as a SMILES string. Activity calls are given as the source filed them. The calls are words filed in the database; no cut-off is given here.

Data set [1] has as its target Metabotropic glutamate receptor 3 (Rattus norvegicus, UniProt P31422). Kind of data set: Negative allosteric modulation of rat mGlu3 receptor expressed in TREX cells coexpressing Galpha15 assessed as inhibition of glutamate induced-calcium mobilization preincubated for 2.3 mins followed by glutamate addition measured for 2.6 mins by Fluo-4 AM dye based fluorescence assay. The format is functional, cell-based.

In data set [2] the target is Metabotropic glutamate receptor 2 (Rattus norvegicus, UniProt P31421). Kind of data set: Negative allosteric modulation of rat mGlu2 receptor expressed in HEK293 cells coexpressing Galpha15 assessed as inhibition of glutamate induced-calcium mobilization preincubated for 2.3 mins followed by glutamate addition measured for 1.9 mins by Fluo-4 AM dye based fluorescence assay. In kind it is functional, cell-based.
Chain of Metabotropic glutamate receptor 2 (P31421 whole entry, looked up): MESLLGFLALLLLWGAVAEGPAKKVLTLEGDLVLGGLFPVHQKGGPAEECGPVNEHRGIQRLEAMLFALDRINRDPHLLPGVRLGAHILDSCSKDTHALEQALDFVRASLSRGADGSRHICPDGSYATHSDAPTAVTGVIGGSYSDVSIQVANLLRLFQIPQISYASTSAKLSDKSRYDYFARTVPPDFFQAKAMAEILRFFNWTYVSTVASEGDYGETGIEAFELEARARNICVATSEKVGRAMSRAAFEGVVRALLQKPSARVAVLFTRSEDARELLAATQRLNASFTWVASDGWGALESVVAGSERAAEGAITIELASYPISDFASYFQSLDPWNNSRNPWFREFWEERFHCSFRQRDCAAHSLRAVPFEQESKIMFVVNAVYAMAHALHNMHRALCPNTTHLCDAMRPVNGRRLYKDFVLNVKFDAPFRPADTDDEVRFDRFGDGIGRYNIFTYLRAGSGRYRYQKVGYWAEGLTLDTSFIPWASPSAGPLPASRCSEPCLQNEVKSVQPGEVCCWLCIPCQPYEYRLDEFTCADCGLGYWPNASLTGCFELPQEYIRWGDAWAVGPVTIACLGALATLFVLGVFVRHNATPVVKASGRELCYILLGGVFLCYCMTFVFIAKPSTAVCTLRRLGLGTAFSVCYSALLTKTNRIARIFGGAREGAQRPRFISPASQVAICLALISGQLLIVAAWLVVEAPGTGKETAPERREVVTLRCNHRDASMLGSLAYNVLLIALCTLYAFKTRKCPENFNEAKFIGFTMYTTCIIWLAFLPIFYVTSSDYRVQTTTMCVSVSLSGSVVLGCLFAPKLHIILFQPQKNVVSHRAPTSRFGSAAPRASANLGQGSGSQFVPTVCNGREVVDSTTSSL

Data set [3] deals with Metabotropic glutamate receptor 5 (Rattus norvegicus) (UniProt P31424). Kind of data set: Positive allosteric modulation of rat mGlu5 receptor expressed in HEK293A cells assessed as increase in glutamate induced-calcium mobilization by measuring maximum glutamate response preincubated for 2.3 mins followed by glutamate addition measured for 1.9 mins by Fluo-4 AM dye based fluorescence assay relative to glutamate. In kind it is functional, cell-based. Background: Calcium assays in cells follow changes in intracellular calcium, usually with a dye or a luminescent sensor.
Chain of Metabotropic glutamate receptor 5 (Rattus norvegicus) (P31424 21-1203 limits assumed): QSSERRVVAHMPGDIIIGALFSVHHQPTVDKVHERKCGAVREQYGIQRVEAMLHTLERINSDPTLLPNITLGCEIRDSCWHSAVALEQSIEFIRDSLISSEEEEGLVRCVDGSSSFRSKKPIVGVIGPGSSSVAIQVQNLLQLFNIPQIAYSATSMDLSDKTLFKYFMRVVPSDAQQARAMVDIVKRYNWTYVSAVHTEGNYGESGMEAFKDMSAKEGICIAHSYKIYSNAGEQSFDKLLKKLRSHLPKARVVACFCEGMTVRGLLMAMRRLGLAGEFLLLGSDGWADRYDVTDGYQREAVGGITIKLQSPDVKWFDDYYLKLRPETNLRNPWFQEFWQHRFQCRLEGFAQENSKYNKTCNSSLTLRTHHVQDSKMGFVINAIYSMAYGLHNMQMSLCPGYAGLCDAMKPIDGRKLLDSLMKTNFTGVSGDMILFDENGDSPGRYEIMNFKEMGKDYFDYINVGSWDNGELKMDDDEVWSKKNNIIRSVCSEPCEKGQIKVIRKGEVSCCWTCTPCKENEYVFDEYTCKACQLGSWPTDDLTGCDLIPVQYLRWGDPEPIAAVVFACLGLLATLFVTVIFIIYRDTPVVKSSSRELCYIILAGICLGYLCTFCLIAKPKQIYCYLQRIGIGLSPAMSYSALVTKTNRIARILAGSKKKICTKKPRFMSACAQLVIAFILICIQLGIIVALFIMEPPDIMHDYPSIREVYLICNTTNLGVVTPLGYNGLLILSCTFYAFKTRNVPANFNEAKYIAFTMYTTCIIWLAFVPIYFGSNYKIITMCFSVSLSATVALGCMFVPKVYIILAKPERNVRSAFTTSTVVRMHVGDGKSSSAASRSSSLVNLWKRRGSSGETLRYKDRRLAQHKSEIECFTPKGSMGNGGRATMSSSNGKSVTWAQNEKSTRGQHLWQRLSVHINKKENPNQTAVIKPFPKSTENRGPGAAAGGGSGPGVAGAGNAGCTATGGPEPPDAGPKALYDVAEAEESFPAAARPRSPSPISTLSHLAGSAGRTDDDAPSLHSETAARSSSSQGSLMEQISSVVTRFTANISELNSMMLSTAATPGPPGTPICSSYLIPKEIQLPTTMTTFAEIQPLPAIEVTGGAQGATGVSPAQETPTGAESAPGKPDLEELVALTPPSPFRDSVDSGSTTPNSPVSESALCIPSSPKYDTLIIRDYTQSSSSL

Data set [4] in a line: Fraction unbound in rat plasma at 5 uM after 4 hrs by equilibrium dialysis based LC/MS/MS analysis. In kind it is ADME, cell-free. (In equilibrium dialysis only unbound substance equilibrates across the membrane.)
Data set [5] addresses Metabotropic glutamate receptor 3 (Rattus norvegicus) (UniProt P31422). Kind of data set: Negative allosteric modulation of rat mGlu3 receptor expressed in TREX cells coexpressing Galpha15 assessed as inhibition of glutamate induced-calcium mobilization by measuring minimum glutamate response preincubated for 2.3 mins followed by glutamate addition measured for 2.6 mins by Fluo-4 AM dye based fluorescence assay relative to glutamate. The format is functional, cell-based.

In data set [6] the target is Metabotropic glutamate receptor 5 (Rattus norvegicus, UniProt P31424). Kind of data set: Positive allosteric modulation of rat mGlu5 receptor expressed in HEK293A cells assessed as increase in glutamate induced-calcium mobilization preincubated for 2.3 mins followed by glutamate addition measured for 1.9 mins by Fluo-4 AM dye based fluorescence assay. In kind it is functional, cell-based.
Chain of Metabotropic glutamate receptor 5 (P31424 whole entry): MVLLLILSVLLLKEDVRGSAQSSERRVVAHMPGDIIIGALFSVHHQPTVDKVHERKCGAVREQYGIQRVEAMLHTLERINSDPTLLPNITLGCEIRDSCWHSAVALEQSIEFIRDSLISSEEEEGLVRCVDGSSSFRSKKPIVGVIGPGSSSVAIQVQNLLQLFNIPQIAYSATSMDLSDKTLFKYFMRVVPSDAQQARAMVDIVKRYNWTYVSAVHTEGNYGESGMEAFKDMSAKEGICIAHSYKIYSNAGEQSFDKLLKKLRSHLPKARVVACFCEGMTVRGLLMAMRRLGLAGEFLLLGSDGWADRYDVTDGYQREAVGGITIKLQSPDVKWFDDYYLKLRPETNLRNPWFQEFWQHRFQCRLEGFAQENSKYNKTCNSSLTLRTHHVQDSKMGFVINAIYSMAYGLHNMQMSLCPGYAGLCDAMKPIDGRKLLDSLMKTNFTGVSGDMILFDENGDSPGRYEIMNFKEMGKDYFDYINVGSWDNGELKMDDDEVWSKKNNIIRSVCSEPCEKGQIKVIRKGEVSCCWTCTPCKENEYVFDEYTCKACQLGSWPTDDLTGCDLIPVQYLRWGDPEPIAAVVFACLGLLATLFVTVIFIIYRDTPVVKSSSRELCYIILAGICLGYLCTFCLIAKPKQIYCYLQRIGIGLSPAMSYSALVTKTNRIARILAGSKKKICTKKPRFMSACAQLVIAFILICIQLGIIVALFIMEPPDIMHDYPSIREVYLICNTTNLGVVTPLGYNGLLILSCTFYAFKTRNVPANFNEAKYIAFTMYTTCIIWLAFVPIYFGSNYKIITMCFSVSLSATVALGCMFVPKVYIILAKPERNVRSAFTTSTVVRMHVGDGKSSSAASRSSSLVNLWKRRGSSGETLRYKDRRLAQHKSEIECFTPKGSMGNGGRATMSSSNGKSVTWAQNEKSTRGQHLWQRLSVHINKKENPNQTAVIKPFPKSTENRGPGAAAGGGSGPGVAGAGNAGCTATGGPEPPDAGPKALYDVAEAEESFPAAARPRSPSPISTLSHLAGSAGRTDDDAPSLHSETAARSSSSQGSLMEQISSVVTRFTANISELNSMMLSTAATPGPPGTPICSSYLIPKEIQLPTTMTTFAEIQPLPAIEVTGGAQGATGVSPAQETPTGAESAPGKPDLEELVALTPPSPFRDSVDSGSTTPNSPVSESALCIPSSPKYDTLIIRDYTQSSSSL

A short description of data set [7]: Ratio of drug uptake in Harlan CD-1 mouse brain at 3 mg/kg, ip to IC50 for negative allosteric modulation of rat mGlu2 receptor expressed in HEK293 cells coexpressing Galpha15. In kind it is ADME, organism-based. To be noted: in vivo.
Data set [8] relates to Mus musculus. Kind of data set: Antidepressant activity in CD-1 mouse assessed as reduction in immobility time up to 30 mg/kg administered ip 15 mins prior to test measured for 6 mins by tail suspension test. In kind it is functional, organism-based.
Data set [9] is described as follows: Drug uptake in Harlan CD-1 mouse brain at 3 mg/kg, ip by LC/MS-MS analysis. The note with it: in vivo, read-out: Drug uptake. In kind it is ADME, organism-based.
For data set [10], the system named is Mus musculus. Kind of data set: Antidepressant activity in CD-1 mouse assessed as reduction in immobility time at 30 mg/kg administered ip 15 mins prior to test measured for 6 mins by tail suspension test. In kind it is functional, organism-based.
Data set [11] deals with Cytochrome P450 3A4 (Homo sapiens, UniProt P08684). Kind of data set: Inhibition of CYP3A4 in human liver microsomes using midazolam as substrate after 15 mins in presence of NADPH by LC/MS/MS analysis. In kind it is ADME.
The target of data set [12] is Cytochrome P450 1A2 (Homo sapiens, UniProt P05177). Kind of data set: Inhibition of CYP1A2 in human liver microsomes using phenacetin as substrate after 15 mins in presence of NADPH by LC/MS/MS analysis. In kind it is ADME. A general note: Liver microsomes are a subcellular fraction often used to study metabolism.
Data set [13] has as its target Cytochrome P450 2C9 (Homo sapiens, UniProt P11712). Kind of data set: Inhibition of CYP2C9 in human liver microsomes using diclofenac as substrate after 15 mins in presence of NADPH by LC/MS/MS analysis. The format is ADME.
Data set [14] concerns the target Cytochrome P450 2D6 (Homo sapiens, UniProt P10635). Kind of data set: Inhibition of CYP2D6 in human liver microsomes using dextromethorphan as substrate after 15 mins in presence of NADPH by LC/MS/MS analysis. In kind it is ADME.
A short description of data set [15]: Unbound brain-to-plasma concentration ratio in rat. In kind it is ADME. To be noted: read-out: K(p,uu,brain).
Data set [16] can be described thus: Fraction unbound in human plasma at 5 uM after 4 hrs by equilibrium dialysis based LC/MS/MS analysis. The format is ADME, cell-free.
Data set [17] in a line: Fraction unbound in rat brain homogenate at 5 uM after 6 hrs by equilibrium dialysis based LC/MS/MS analysis. In kind it is ADME, tissue-based.
Data set [18] can be described thus: Brain to plasma partition coefficient, Kp of the compound in rat. In kind it is ADME.
The species entered for data set [19] is Rattus norvegicus. Kind of data set: Selectivity ratio of EC50 for positive allosteric modulation of rat mGlu5 receptor expressed in HEK293A cells to IC50 for negative allosteric modulation of rat mGlu3 receptor expressed in TREX cells coexpressing Galpha15. In kind it is cell-based.

Chain of Metabotropic glutamate receptor 3 (Rattus norvegicus) (P31422 23-879 limits assumed): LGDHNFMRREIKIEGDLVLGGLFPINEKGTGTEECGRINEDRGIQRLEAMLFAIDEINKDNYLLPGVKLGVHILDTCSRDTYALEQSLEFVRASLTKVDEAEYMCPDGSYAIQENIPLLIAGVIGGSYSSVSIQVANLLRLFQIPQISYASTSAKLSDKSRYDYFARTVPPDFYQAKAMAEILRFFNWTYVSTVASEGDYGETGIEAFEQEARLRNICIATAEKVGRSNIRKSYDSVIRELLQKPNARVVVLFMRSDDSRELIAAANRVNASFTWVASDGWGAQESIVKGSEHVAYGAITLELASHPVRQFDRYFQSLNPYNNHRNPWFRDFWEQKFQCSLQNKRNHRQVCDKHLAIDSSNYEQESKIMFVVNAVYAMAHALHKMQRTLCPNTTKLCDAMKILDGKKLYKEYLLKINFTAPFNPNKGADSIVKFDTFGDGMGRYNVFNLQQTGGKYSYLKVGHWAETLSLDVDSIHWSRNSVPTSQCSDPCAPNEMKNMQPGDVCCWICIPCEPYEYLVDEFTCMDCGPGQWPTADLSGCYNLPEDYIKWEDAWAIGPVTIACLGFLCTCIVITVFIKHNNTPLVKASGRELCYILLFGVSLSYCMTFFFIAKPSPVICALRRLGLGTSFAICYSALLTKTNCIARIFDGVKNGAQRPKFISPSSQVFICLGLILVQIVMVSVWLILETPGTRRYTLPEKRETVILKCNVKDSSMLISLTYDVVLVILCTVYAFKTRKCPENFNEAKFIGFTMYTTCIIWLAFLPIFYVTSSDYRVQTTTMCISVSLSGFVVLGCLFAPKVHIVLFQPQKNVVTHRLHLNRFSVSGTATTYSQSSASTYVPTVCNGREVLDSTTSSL
Chain of Metabotropic glutamate receptor 3 (P31422 whole entry): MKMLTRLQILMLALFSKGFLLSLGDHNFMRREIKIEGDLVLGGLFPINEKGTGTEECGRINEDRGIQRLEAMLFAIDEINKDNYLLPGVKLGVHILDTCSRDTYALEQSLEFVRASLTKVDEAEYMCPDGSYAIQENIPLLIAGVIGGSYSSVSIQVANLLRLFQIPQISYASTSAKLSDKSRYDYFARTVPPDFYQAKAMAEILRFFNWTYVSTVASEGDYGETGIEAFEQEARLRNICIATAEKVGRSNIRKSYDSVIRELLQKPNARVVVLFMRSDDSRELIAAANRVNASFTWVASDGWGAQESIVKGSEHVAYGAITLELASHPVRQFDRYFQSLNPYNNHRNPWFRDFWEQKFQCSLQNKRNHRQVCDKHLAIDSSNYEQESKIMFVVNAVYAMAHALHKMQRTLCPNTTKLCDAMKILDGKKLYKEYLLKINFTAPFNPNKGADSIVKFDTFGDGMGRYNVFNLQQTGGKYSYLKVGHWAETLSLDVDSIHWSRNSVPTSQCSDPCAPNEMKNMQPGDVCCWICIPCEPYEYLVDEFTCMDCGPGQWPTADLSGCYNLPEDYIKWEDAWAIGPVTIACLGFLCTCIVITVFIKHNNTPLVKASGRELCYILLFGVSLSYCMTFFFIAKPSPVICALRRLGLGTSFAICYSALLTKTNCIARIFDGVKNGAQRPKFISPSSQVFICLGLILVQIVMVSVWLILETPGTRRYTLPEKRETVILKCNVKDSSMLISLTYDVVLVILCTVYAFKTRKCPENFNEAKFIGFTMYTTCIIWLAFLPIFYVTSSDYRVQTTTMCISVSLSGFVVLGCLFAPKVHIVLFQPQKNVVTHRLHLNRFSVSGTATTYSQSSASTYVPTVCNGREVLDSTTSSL

For orientation: IC50 means the concentration needed to halve the response being measured. On to `C[C@H](COc1ccn(-c2ccc(F)cc2)c(=O)c1)Oc1ccccc1`, for which the IC50 in data set [1] and in data set [2] was over 30000 nM in each case.
The Emax is the maximal effect, on the per cent scale that the assay sets. In general, fraction unbound refers to the share of the substance not bound to proteins or other matrix. As for `O=c1nc(OCCOc2ccccc2)ccn1-c1ccc(F)cc1`, the Emax in data set [3] amounted to 97%. The IC50 in data set [1] was 290 nM; in data set [2], over 30000 nM. Besides, in data set [4], the fraction unbound at 4 h, 5 µM worked out at 0.16. In addition, in [5], the Emin is 3.94%.
As usually defined, the EC50 is the midpoint of the concentration-response curve. For `O=c1cc(OCCOc2ccccc2)ccn1-c1ccc(F)c(F)c1`, the maximal effect (Emax) in data set [3] is 91%. Moreover, the IC50 in data set [1] is 180 nM. The EC50 in data set [6] was 340 nM. Also, the Emin in data set [5] was determined as 3.53%.
As to `Cn1ccc(COc2cnc(C(N)=O)cc2-c2ccc(F)cc2)n1`, the Ratio in data set [7] was 180. Also, the outcome in [8] was inactive. The concentration in data set [9] turned out to be 14 µM.
As to `CNC1(c2ccccc2Cl)CCCCC1=O` (stereo not drawn), the outcome in data set [10] was Active.
Consider `O=c1cc(OCCOc2cc(Cl)ccn2)ccn1-c1ccc(F)cc1`, for which the Emax in data set [3] amounted to 82%. Further, the IC50 in data set [1] was 1450 nM. The Emin in data set [5] worked out at 3.77%.
In the same order, the values of `O=c1cc(OCCOc2ncccc2Cl)ccn1-c1ccc(F)cc1` are 94%, 450 nM and 3.62%.
A word on the Kp: it is tissue or fluid exposure divided by exposure in the circulation. For `CC(COc1ccn(-c2ccc(F)cc2)c(=O)c1)Oc1ccccc1` (stereo not drawn), the IC50 in data set [11] is over 30000 nM; in [12], over 30000 nM; in data set [13], over 30000 nM; in data set [1] it was 1230 nM; in data set [14] it was over 30000 nM. Further, the EC50 in data set [6] is over 30000 nM. Also, in [15], the Kp uu was 1.3. For the same compound, the fraction unbound at 4 h, 5 µM in data set [16] came to 0.1; in [4] it was 0.04. The fraction unbound at 6 h, 5 µM in data set [17] came out at 0.05. In [18], the Kp stood at 1.7. In addition, the Emin in [5] is 3.57%.
With `N#Cc1cccc(-n2ccc(OCCOc3ccccc3)cc2=O)c1`, in data set [3], the Emax was 87%. In addition, the IC50 in data set [1] turned out to be 340 nM. For the same compound, the Selectivity ratio in data set [19] stood at 18. In addition, the Emin in data set [5] came to 3.63%.
In the case of `O=c1cc(OCCOc2cccc(F)c2)ccn1-c1ccc(F)cc1`, the Emax in [3] is 93%. Besides, in data set [1], the IC50 worked out at 350 nM. The EC50 in [6] came to 1500 nM. Further, in data set [5], the Emin is 3.56%.
With `N#Cc1cc(F)cc(-n2ccc(OCCOc3ccccc3)cc2=O)c1`, the Emax in data set [3] was found to be 27%. In addition, in data set [1], the half-maximal inhibitory concentration (IC50) was determined as 270 nM. Also, the Emin in data set [5] is 3.39%.
In the same order, the values of `O=c1nc(OCCOc2ccccc2)ccn1-c1cccc(F)c1` are 77%, over 10000 nM and 15.5%.
With `O=c1cc(OCCOc2ccccc2)ccn1-c1cccc(F)c1`, the Emax in data set [3] came to 88%. For the same compound, in data set [1], the IC50 was 390 nM. In [6], the EC50 came out at 1900 nM. Further, in data set [5], the Emin came to 3.45%.
In the same order, the values of `O=c1cc(OCCOc2ccccc2)ccn1-c1ccc(F)cc1` are 97%, 930 nM, 560 nM and 2.69%.
On to `O=c1nc(OCCOc2ccccc2)ccn1-c1ccc(F)c(F)c1`, for which the Emax in data set [3] was found to be 83%. Moreover, the IC50 in [1] is 1020 nM. The Emin in data set [5] was 3.77%.
